Experimental findings from patent US8937078B2, “Quinazolinones as prolyl hydroxylase inhibitors” (Janssen Pharmaceutica NV, priority 2009, dated 2015) are described below.

For one assay, the target named is T1, human PHD2 (PHD2181-417) (Homo sapiens, UniProt Q9GZT9).
T1 construct: Smt (SUMO) tag (cleaved yes); made in house; host or cells: E. coli BL21 (pBAD vector)
The assay can be described thus: PHD enzymatic assay ([14C]-succinic acid production). It is filed as biochemical. The note with it: PHD2181-417, HIF-1α peptide 10 μM, average of results; read-out: Enzyme pIC50 (converted). In a few lines:
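Activity measured as [14C]-succinic acid formed from [5-14C]-2-oxoglutarate over 10 minutes, with peptide substrate at 10 μM, in Tris-HCl pH 7.5 buffer containing catalase, DTT and ascorbate. Unreacted oxoglutarate removed by DNP derivatisation; supernatant beta-counted.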

In the next assay the test system is Hep-3B cells. The assay can be described thus: Cellular assay: erythropoietin secretion in Hep-3B cells. The following applies: Homo sapiens, Hep3B, 100 μM compound, 24 hours, percent of EPO secretion relative to assay control compound 7-[(4-Chloro-phenyl)-(5-methyl-isoxazol-3-ylamino)-methyl]-quinolin-8-ol, read-out: Cellular % EPO Stimulation. It counts as cell-based, human. In outline:
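Hep-3B cells in DMEM with 10% FBS, treated 24 h after plating with compounds at 100 μM final for a further 24 h. Secreted EPO in supernatant measured by MSD electrochemiluminescence sandwich immunoassay with anti-EPO detection antibody.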

T1 sequence (Q9GZT9 181-417): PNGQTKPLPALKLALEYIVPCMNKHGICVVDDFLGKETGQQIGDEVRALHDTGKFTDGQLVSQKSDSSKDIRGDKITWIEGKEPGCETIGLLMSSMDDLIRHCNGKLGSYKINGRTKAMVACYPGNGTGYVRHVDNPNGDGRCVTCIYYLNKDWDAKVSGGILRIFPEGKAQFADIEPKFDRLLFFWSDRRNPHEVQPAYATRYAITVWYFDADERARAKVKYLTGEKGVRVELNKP

On to `O=C(O)c1cnn(-c2nc3c(Oc4ccccc4)cccc3c(=O)[nH]2)c1` [Example 112, 1-(4-Oxo-8-phenoxy-3,4-dihydro-quinazolin-2-yl)-1H-pyrazole-4-carboxylic acid], for which the IC50 on human PHD2 (PHD2181-417) was 0.158 µM. Besides, in the assay with Hep-3B cells, the Emax at 100 µM amounted to 18%.
`O=C(O)c1cnn(-c2nc3cc(F)ccc3c(=O)[nH]2)c1` [Example 133, 1-(7-Fluoro-4-oxo-3,4-dihydro-quinazolin-2-yl)-1H-pyrazole-4-carboxylic acid]: the IC50 at human PHD2 (PHD2181-417) was 0.0398 µM. In the assay with Hep-3B cells, the Emax at 100 µM came out at 10%.
Turning to `O=C(O)c1cnn(-c2nc3cc(S(=O)(=O)c4ccccc4)ccc3c(=O)[nH]2)c1` [Example 81, 1-(7-Benzenesulfonyl-4-oxo-3,4-dihydro-quinazolin-2-yl)-1H-pyrazole-4-carboxylic acid], at human PHD2 (PHD2181-417), the IC50 was 0.0794 µM. Moreover, in the assay with Hep-3B cells, the Emax at 100 µM was 26%.
Take `O=C(O)c1cnn(-c2nc3ccc(Oc4ccc(Cl)cc4Cl)cc3c(=O)[nH]2)c1` [Example 39, 1-[6-(2,4-Dichloro-phenoxy)-4-oxo-3,4-dihydro-quinazolin-2-yl]-1H-pyrazole-4-carboxylic acid]: the IC50 on human PHD2 (PHD2181-417) was 0.0251 µM. Further, in the assay with Hep-3B cells, the Emax at 100 µM came out at 77%.
In the case of `Cc1cccc(Oc2ccc3nc(-n4cc(C(=O)O)cn4)[nH]c(=O)c3c2)c1` [Example 36, 1-(4-Oxo-6-m-tolyloxy-3,4-dihydro-quinazolin-2-yl)-1H-pyrazole-4-carboxylic acid], the IC50 on human PHD2 (PHD2181-417) is 0.0398 µM. Besides, the Emax at 100 µM in the assay with Hep-3B cells amounted to 22%.
In the same order, the values of `Cc1ccc(-c2ccc3nc(-n4cc(C(=O)O)cn4)[nH]c(=O)c3c2)cc1` [Example 191, 1-(4-Oxo-6-p-tolyl-3,4-dihydro-quinazolin-2-yl)-1H-pyrazole-4-carboxylic acid] are 0.02 µM and 31%.
Consider `COc1cc2nc(-n3cc(C(=O)O)cn3)[nH]c(=O)c2c(OC)c1OC` [Example 18, 1-(5,6,7-Trimethoxy-4-oxo-3,4-dihydro-quinazolin-2-yl)-1H-pyrazole-4-carboxylic acid], for which the IC50 at human PHD2 (PHD2181-417) was 0.316 µM. Further, the Emax at 100 µM with Hep-3B cells was found to be 42%.
As for `CC(C)(C)c1ccc(Sc2cc3c(=O)nc(-n4cc(C(=O)O)cn4)[nH]c3cc2Cl)cc1` [Example 24, 1-[6-(4-tert-Butyl-phenylsulfanyl)-7-chloro-4-oxo-1,4-dihydro-quinazolin-2-yl]-1H-pyrazole-4-carboxylic acid], the IC50 on human PHD2 (PHD2181-417) was 0.0251 µM. For the same molecule, the Emax at 100 µM in the assay on Hep-3B cells worked out at 50%.
As to `O=C(O)c1cnn(-c2nc3ccc(OC4CCCCC4)cc3c(=O)[nH]2)c1` [Example 102, 1-(6-cyclohexyloxy-4-oxo-3,4-dihydro-quinazolin-2-yl)-1H-pyrazole-4-carboxylic acid], the IC50 at human PHD2 (PHD2181-417) was 0.02 µM. Besides, the Emax at 100 µM in the assay with Hep-3B cells was determined as 59%.
As to `N#Cc1cccc(CNc2ccc3nc(-n4cc(C(=O)O)cn4)[nH]c(=O)c3c2)c1` [Example 178, 1-[6-(3-Cyano-benzylamino)-4-oxo-3,4-dihydro-quinazolin-2-yl]-1H-pyrazole-4-carboxylic acid], the IC50 on human PHD2 (PHD2181-417) is 0.02 µM. The Emax at 100 µM in the assay on Hep-3B cells worked out at 12%.
On to `O=C(O)c1cnn(-c2nc3cc(I)ccc3c(=O)[nH]2)c1` [Example 208, 1-(7-Iodo-4-oxo-3,4-dihydro-quinazolin-2-yl)-1H-pyrazole-4-carboxylic acid], for which, at human PHD2 (PHD2181-417), the IC50 is 0.126 µM. In the assay with Hep-3B cells, the Emax at 100 µM turned out to be 20%.
For the molecule `Cc1cc(C)cc(Oc2cc3c(=O)[nH]c(-n4cc(C(=O)O)cn4)nc3cc2F)c1` [Example 94, 1-[6-(3,5-dimethyl-phenoxy)-7-fluoro-4-oxo-3,4-dihydro-quinazolin-2-yl]-1 H-pyrazole-4-carboxylic acid], the IC50 on human PHD2 (PHD2181-417) is 0.02 µM. Also, the Emax at 100 µM in the assay on Hep-3B cells was 90%.
In the same order, the values of `O=C(O)c1cnn(-c2nc3c4c(ccc3c(=O)[nH]2)CCC4)c1` [Example 141, 1-(6-Oxo-2,3,6,7-tetrahydro-1H-7,9-diaza-cyclopenta[a]naphthalen-8-yl)-1H-pyrazole-4-carboxylic acid] are 0.501 µM and 25%.
On to `O=C(O)c1cnn(-c2nc3ccc4[nH]ccc4c3c(=O)[nH]2)c1` [Example 23, 1-(1-Oxo-2,7-dihydro-1H-pyrrolo[3,2-f]quinazolin-3-yl)-1H-pyrazole-4-carboxylic acid], for which the IC50 on human PHD2 (PHD2181-417) was 0.158 µM. The Emax at 100 µM in the assay with Hep-3B cells came out at 33%.
As for `O=C(O)c1cnn(-c2nc3ccc(Oc4cccc(Cl)c4)cc3c(=O)[nH]2)c1` [Example 30, 1-[6-(3-Chloro-phenoxy)-4-oxo-3,4-dihydro-quinazolin-2-yl]-1H-pyrazole-4-carboxylic acid], on human PHD2 (PHD2181-417), the IC50 was 0.0251 µM. In the assay on Hep-3B cells, the Emax at 100 µM was found to be 15%.
As to `Cc1ccccc1Oc1ccc2nc(-n3cc(C(=O)O)cn3)[nH]c(=O)c2c1` [Example 37, 1-(4-Oxo-6-o-tolyloxy-3,4-dihydro-quinazolin-2-yl)-1H-pyrazole-4-carboxylic acid], the IC50 at human PHD2 (PHD2181-417) was 0.0251 µM. Also, in the assay on Hep-3B cells, the Emax at 100 µM worked out at 78%.
On to `O=C(O)c1cnn(-c2nc3ccc(-c4ccc5c(c4)OCO5)cc3c(=O)[nH]2)c1` [Example 207, 1-(6-Benzo[1,3]dioxol-5-yl-4-oxo-3,4-dihydro-quinazolin-2-yl)-1H-pyrazole-4-carboxylic acid], for which the IC50 at human PHD2 (PHD2181-417) is 0.0251 µM. Moreover, the Emax at 100 µM in the assay with Hep-3B cells is 84%.
`O=C(O)c1cnn(-c2nc3ccc(Oc4ccc(Cl)cc4)cc3c(=O)[nH]2)c1` [Example 46, 1-[6-(4-Chloro-phenoxy)-4-oxo-3,4-dihydro-quinazolin-2-yl]-1H-pyrazole-4-carboxylic acid]: at human PHD2 (PHD2181-417), the IC50 is 0.0316 µM. The Emax at 100 µM with Hep-3B cells was determined as 126%.
For the molecule `COc1ccc(S(=O)(=O)c2cc3c(=O)[nH]c(-n4cc(C(=O)O)cn4)nc3cc2Cl)cc1OC` [Example 71, 1-[7-Chloro-6-(3,4-dimethoxy-benzenesulfonyl)-4-oxo-3,4-dihydro-quinazolin-2-yl]-1H-pyrazole-4-carboxylic acid], the IC50 on human PHD2 (PHD2181-417) was 0.0158 µM. Moreover, in the assay with Hep-3B cells, the Emax at 100 µM is 16%.
In the case of `O=C(O)c1cnn(-c2nc3ccc(S(=O)(=O)N4CCCC4)cc3c(=O)[nH]2)c1` [Example 161, 1-[4-Oxo-6-(pyrrolidine-1-sulfonyl)-3,4-dihydro-quinazolin-2-yl]-1H-pyrazole-4-carboxylic acid], the IC50 on human PHD2 (PHD2181-417) is 0.0398 µM. Also, the Emax at 100 µM in the assay on Hep-3B cells amounted to 17%.
In the case of `O=C(O)c1cnn(-c2nc3ccc(N4CCCCC4)cc3c(=O)[nH]2)c1` [Example 124, 1-(4-Oxo-6-piperidin-1-yl-3,4-dihydro-quinazolin-2-yl)-1H-pyrazole-4-carboxylic acid], the IC50 on human PHD2 (PHD2181-417) is 0.0398 µM. Also, the Emax at 100 µM in the assay on Hep-3B cells was 71%.
`O=C(O)c1cnn(-c2nc3cc(F)c(Oc4cccc(F)c4)cc3c(=O)[nH]2)c1` [Example 56, 1-[7-Fluoro-6-(3-fluoro-phenoxy)-4-oxo-3,4-dihydro-quinazolin-2-yl]-1H-pyrazole-4-carboxylic acid]: the IC50 at human PHD2 (PHD2181-417) was 0.02 µM. Further, the Emax at 100 µM with Hep-3B cells is 68%.
As for `CCNc1ccc2nc(-n3cc(C(=O)O)cn3)[nH]c(=O)c2c1` [Example 172, 1-(6-Ethylamino-4-oxo-3,4-dihydro-quinazolin-2-yl)-1H-pyrazole-4-carboxylic acid], on human PHD2 (PHD2181-417), the IC50 was 0.0251 µM. In the assay on Hep-3B cells, the Emax at 100 µM is 20%.
In the same order, the values of `O=C(O)c1cnn(-c2nc3cc(Cl)c(-c4ccccc4)cc3c(=O)[nH]2)c1` [Example 68, 1-(7-Chloro-4-oxo-6-phenyl-3,4-dihydro-quinazolin-2-yl)-1H-pyrazole-4-carboxylic acid] are 0.02 µM and 59%.
In the same order, the values of `O=C(O)c1cnn(-c2nc3ccc(Oc4ccccc4F)cc3c(=O)[nH]2)c1` [Example 33, 1-[6-(2-Fluoro-phenoxy)-4-oxo-3,4-dihydro-quinazolin-2-yl]-1H-pyrazole-4-carboxylic acid] are 0.0316 µM and 56%.
The corresponding values for `O=C(O)c1cnn(-c2nc3ccc(Oc4cccc(-c5ccccc5)c4)cc3c(=O)[nH]2)c1` [Example 99, 1-[6-(biphenyl-3-yloxy)-4-oxo-3,4-dihydro-quinazolin-2-yl]-1H-pyrazole-4-carboxylic acid] are 0.0251 µM and 81%.
With `COc1cc2nc(-n3cc(C(=O)O)cn3)[nH]c(=O)c2cc1Oc1ccccc1` [Example 62, 1-(7-Methoxy-4-oxo-6-phenoxy-3,4-dihydro-quinazolin-2-yl)-1H-pyrazole-4-carboxylic acid], the IC50 on human PHD2 (PHD2181-417) is 0.0398 µM. Besides, the Emax at 100 µM with Hep-3B cells stood at 7%.
`O=C(O)c1cnn(-c2nc3cc(O)ccc3c(=O)[nH]2)c1` [Example 154, 1-(7-Hydroxy-4-oxo-3,4-dihydro-quinazolin-2-yl)-1H-pyrazole-4-carboxylic acid]: the IC50 at human PHD2 (PHD2181-417) is 0.0501 µM. Also, the Emax at 100 µM with Hep-3B cells was determined as 12%.
`O=C(O)c1cnn(-c2nc3ccc(-c4ccccc4Cl)cc3c(=O)[nH]2)c1` [Example 192, 1-[6-(2-Chloro-phenyl)-4-oxo-3,4-dihydro-quinazolin-2-yl]-1H-pyrazole-4-carboxylic acid]: at human PHD2 (PHD2181-417), the IC50 was 0.0316 µM. In addition, the Emax at 100 µM with Hep-3B cells stood at 87%.
As to `O=C(O)c1cnn(-c2nc3ccc(Oc4ccc(F)cc4)cc3c(=O)[nH]2)c1` [Example 32, 1-[6-(4-Fluoro-phenoxy)-4-oxo-3,4-dihydro-quinazolin-2-yl]-1H-pyrazole-4-carboxylic acid], the IC50 on human PHD2 (PHD2181-417) is 0.0251 µM. Moreover, the Emax at 100 µM in the assay on Hep-3B cells was found to be 68%.
